The text below walks through data of ChEMBL document CHEMBL5390219, “Benzyl stapled modification and anticancer activity of antimicrobial peptide A4K14-Citropin 1.1” (Bioorg Med Chem Lett, 2023).

Series [1] concerns HCT-116. Kind of series: Anti-cancer activity against human HCT-116 assessed as cell viability incubated for 48 hrs by CCK-8 assay. The series is classed as functional, cell-based. Conditions: HCT-116, 48 h.
The subject of series [2] is MCF7. Kind of series: Anti-cancer activity against human MCF7 assessed as cell viability incubated for 48 hrs by CCK-8 assay. The series is classed as functional, cell-based. Conditions: MCF7, 48 h. A general note: Tetrazolium dyes change colour on reduction, which living cells bring about.
The test system of series [3] is U-87 MG. Put plainly: Anti-cancer activity against human U-87 MG assessed as cell viability incubated for 48 hrs by CCK-8 assay. The series is classed as functional, cell-based, U-87MG ATCC.
In series [4] the test system is MCF7. Put plainly: Induction of apoptosis in human MCF7 cells assessed as early apoptotic cells at 5 uM incubated for 24 hrs by Annexin V-FITC/PI staining based flow cytometry analysis (reference value: 1.01%). The series is classed as functional.
In series [5] the test system is MCF7. Kind of series: Induction of apoptosis in human MCF7 cells assessed as late apoptotic cells at 5 uM incubated for 24 hrs by Annexin V-FITC/PI staining based flow cytometry analysis (reference value: 3.54%). The series is classed as functional. On the technique in general: In flow cytometry, cells or beads pass a laser one at a time.
In series [6] the test system is MCF7. Kind of series: Inhibition of cell migration in human MCF7 cells at 5 uM incubated for 24 hrs by scratch wound healing assay. The series is classed as functional, cell-based.
Series [7] can be described thus: Stability of a compound in human serum assessed as half life at 91 mg/mL incubated for 0 to 144 hrs by HPLC-UV analysis. Format: ADME, cell-free. Conditions: time 0-144 hrs.
For series [8], the system named is MCF7. Put plainly: Induction of cell death in human MCF7 cells assessed as reduction in number of viable cells at 10 uM incubated for 24 hrs by calcein-AM/PI staining based analysis. The series is classed as functional.
In series [9] the test system is MCF7. Kind of series: Inhibition of cell migration in human MCF7 cells at 5 uM incubated for 36 hrs by crystal violet staining based microscopy analysis. The series is classed as functional.
Series [10] relates to MCF7. Kind of series: Induction of apoptosis in human MCF7 cells assessed as necrotic cells at 5 uM incubated for 24 hrs by Annexin V-FITC/PI staining based flow cytometry analysis (reference value: 1.94%). Format: functional.
In series [11] the test system is MCF7. Kind of series: Induction of apoptosis in human MCF7 cells assessed as viable cells at 5 uM incubated for 24 hrs by Annexin V-FITC/PI staining based flow cytometry analysis (reference value: 93.51%). Format: functional. Conditions: read-out: Activity.

Calls of active or inactive are those of the source. *1 amine or outer side, *2 acyl side, *3 side chain or, on linkers, in order; H or OH if unused. Where a SMILES comes first, the peptide text is derived from it. Bridges are numbered along the chain shown (N, C = ends). Biphenyl(4,4'-CH2)2 = c1cc(-c2ccc(C[*:2])cc2)ccc1C[*:1]; mXylylene = c1cc(C[*:1])cc(C[*:2])c1; oXylylene = c1ccc(C[*:2])c(C[*:1])c1; pXylylene = c1cc(C[*:2])ccc1C[*:1]

What is called IC50 is the concentration that gives 50% inhibition. In the case of `CC[C@H](C)[C@H](NC(=O)[C@@H](NC(=O)[C@H](CO)NC(=O)[C@H](C)NC(=O)[C@@H](NC(=O)[C@H](CCCCN)NC(=O)[C@H](CCCCN)NC(=O)[C@@H]1CSCc2cccc(c2)CSC[C@H](NC(=O)CNC(C)=O)C(=O)N[C@@H](Cc2ccccc2)C(=O)N[C@@H](C)C(=O)N[C@@H](C(C)C)C(=O)N1)C(C)C)C(C)C)C(=O)N[C@@H](CCCCN)C(=O)NCC(=O)N[C@@H](CC(C)C)C(N)=O` (Ac-GCFAVCKKVASVIKGL-NH2; linker 2-6 via mXylylene), the figures for the IC50 in [1], in series [2] and in series [3] were 106 µM, 54.7 µM and 57.8 µM, respectively.
Consider `CC[C@H](C)[C@H](NC(=O)[C@@H](NC(=O)[C@H](CO)NC(=O)[C@H](C)NC(=O)[C@@H](NC(=O)[C@H](CCCCN)NC(=O)[C@H](CCCCN)NC(=O)[C@@H]1CSCc2ccccc2CSC[C@H](NC(=O)CNC(C)=O)C(=O)N[C@@H](Cc2ccccc2)C(=O)N[C@@H](C)C(=O)N[C@@H](C(C)C)C(=O)N1)C(C)C)C(C)C)C(=O)N[C@@H](CCCCN)C(=O)NCC(=O)N[C@@H](CC(C)C)C(N)=O` (Ac-GCFAVCKKVASVIKGL-NH2; linker 2-6 via oXylylene), for which the IC50 in series [1] is 13.9 µM; in series [2], 12.5 µM; in [3], 11.4 µM.
Taken in the same sequence, the figures for `CC[C@H](C)[C@H](NC(=O)[C@@H](NC(=O)[C@H](CO)NC(=O)[C@H](C)NC(=O)[C@@H](NC(=O)[C@H](CCCCN)NC(=O)[C@H](CCCCN)NC(=O)[C@@H]1CSCc2ccc(cc2)CSC[C@H](NC(=O)CNC(C)=O)C(=O)N[C@@H](Cc2ccccc2)C(=O)N[C@@H](C)C(=O)N[C@@H](C(C)C)C(=O)N1)C(C)C)C(C)C)C(=O)N[C@@H](CCCCN)C(=O)NCC(=O)N[C@@H](CC(C)C)C(N)=O` (Ac-GCFAVCKKVASVIKGL-NH2; linker 2-6 via pXylylene) were 230 µM, 54.1 µM and 53 µM.
On to `CC[C@H](C)[C@@H]1NC(=O)[C@@H](NC(=O)[C@H](C)NC(=O)[C@H](Cc2ccccc2)NC(=O)[C@H](CC(C)C)NC(=O)CNC(C)=O)CSCc2cccc(c2)CSC[C@@H](C(=O)N[C@@H](C)C(=O)N[C@@H](CO)C(=O)N[C@H](C(=O)N[C@H](C(=O)N[C@@H](CCCCN)C(=O)NCC(=O)N[C@@H](CC(C)C)C(N)=O)[C@@H](C)CC)C(C)C)NC(=O)[C@H](CCCCN)NC(=O)[C@H](CCCCN)NC1=O` (Ac-GLFACIKKCASVIKGL-NH2; linker 5-9 via mXylylene), for which the IC50 amounted to 8.23 µM in series [1], 9.25 µM in series [2] and 11.8 µM in series [3].
The term half-life denotes the time needed for the level to fall by half in the phase considered. On to `CC[C@H](C)[C@@H]1NC(=O)[C@@H](NC(=O)[C@H](C)NC(=O)[C@H](Cc2ccccc2)NC(=O)[C@H](CC(C)C)NC(=O)CNC(C)=O)CSCc2ccccc2CSC[C@@H](C(=O)N[C@@H](C)C(=O)N[C@@H](CO)C(=O)N[C@H](C(=O)N[C@H](C(=O)N[C@@H](CCCCN)C(=O)NCC(=O)N[C@@H](CC(C)C)C(N)=O)[C@@H](C)CC)C(C)C)NC(=O)[C@H](CCCCN)NC(=O)[C@H](CCCCN)NC1=O` (Ac-GLFACIKKCASVIKGL-NH2; linker 5-9 via oXylylene), for which the Activity was determined as 22.39% in [4], 75.52% in [5] and 1.35% in [10]. For the same compound, the IC50 in series [1] came to 5.04 µM; in [2], 2.75 µM; in series [3], 2.8 µM. Further, the outcome in [6], in [8] and in series [9] was Active. Further, the half-life at 91 mg/mL in [7] was 143 h. For the same compound, the viability at 5 µM in [11] came out at 1.1%.
As to `CC[C@H](C)[C@@H]1NC(=O)[C@@H](NC(=O)[C@H](C)NC(=O)[C@H](Cc2ccccc2)NC(=O)[C@H](CC(C)C)NC(=O)CNC(C)=O)CSCc2ccc(cc2)CSC[C@@H](C(=O)N[C@@H](C)C(=O)N[C@@H](CO)C(=O)N[C@H](C(=O)N[C@H](C(=O)N[C@@H](CCCCN)C(=O)NCC(=O)N[C@@H](CC(C)C)C(N)=O)[C@@H](C)CC)C(C)C)NC(=O)[C@H](CCCCN)NC(=O)[C@H](CCCCN)NC1=O` (Ac-GLFACIKKCASVIKGL-NH2; linker 5-9 via pXylylene), the IC50 was 12.9 µM in series [1], 11.8 µM in [2] and 12.8 µM in [3].
Taken in the same sequence, the figures for `CC(=O)NCC(=O)N[C@@H](CC(C)C)C(=O)N[C@@H](Cc1ccccc1)C(=O)N[C@@H](C)C(=O)N[C@H](C(=O)N[C@H]1CSCc2ccc(cc2)-c2ccc(cc2)CSC[C@@H](C(=O)N[C@@H](CCCCN)C(=O)NCC(=O)N[C@@H](CC(C)C)C(N)=O)NC(=O)[C@H](C(C)C)NC(=O)[C@H](CO)NC(=O)[C@H](C)NC(=O)[C@H](C(C)C)NC(=O)[C@H](CCCCN)NC(=O)[C@H](CCCCN)NC1=O)C(C)C` (Ac-GLFAVCKKVASVCKGL-NH2; linker 6-13 via Biphenyl(4,4'-CH2)2) were 7.44 µM, 7.47 µM and 9.2 µM.
For `CC[C@H](C)[C@H](NC(=O)[C@@H](NC(=O)[C@H](CO)NC(=O)[C@@H]1CSCc2cccc(c2)CSC[C@H](NC(=O)[C@@H](NC(=O)[C@H](C)NC(=O)[C@H](Cc2ccccc2)NC(=O)[C@H](CC(C)C)NC(=O)CNC(C)=O)C(C)C)C(=O)N[C@@H](CCCCN)C(=O)N[C@@H](CCCCN)C(=O)N[C@@H](C(C)C)C(=O)N1)C(C)C)C(=O)N[C@@H](CCCCN)C(=O)NCC(=O)N[C@@H](CC(C)C)C(N)=O` (Ac-GLFAVCKKVCSVIKGL-NH2; linker 6-10 via mXylylene) the same measures were 10.6 µM, 13.6 µM and 14.3 µM.
Turning to `CC[C@H](C)[C@H](NC(=O)[C@@H](NC(=O)[C@H](CO)NC(=O)[C@@H]1CSCc2ccccc2CSC[C@H](NC(=O)[C@@H](NC(=O)[C@H](C)NC(=O)[C@H](Cc2ccccc2)NC(=O)[C@H](CC(C)C)NC(=O)CNC(C)=O)C(C)C)C(=O)N[C@@H](CCCCN)C(=O)N[C@@H](CCCCN)C(=O)N[C@@H](C(C)C)C(=O)N1)C(C)C)C(=O)N[C@@H](CCCCN)C(=O)NCC(=O)N[C@@H](CC(C)C)C(N)=O` (Ac-GLFAVCKKVCSVIKGL-NH2; linker 6-10 via oXylylene), the Activity in series [4] was 15.92%; in series [5], 37.02%; in series [10], 3.9%. Also, the results for the IC50 in [1], in series [2] and in series [3] were 5.86 µM, 6.58 µM and 6.27 µM, respectively. Further, the outcome in [6], in series [8] and in series [9] was Active. In addition, the half-life at 91 mg/mL in series [7] was 143 h. Also, the viability at 5 µM in series [11] was found to be 43.2%.
On to `CC[C@H](C)[C@H](NC(=O)[C@@H](NC(=O)[C@H](CO)NC(=O)[C@@H]1CSCc2ccc(cc2)CSC[C@H](NC(=O)[C@@H](NC(=O)[C@H](C)NC(=O)[C@H](Cc2ccccc2)NC(=O)[C@H](CC(C)C)NC(=O)CNC(C)=O)C(C)C)C(=O)N[C@@H](CCCCN)C(=O)N[C@@H](CCCCN)C(=O)N[C@@H](C(C)C)C(=O)N1)C(C)C)C(=O)N[C@@H](CCCCN)C(=O)NCC(=O)N[C@@H](CC(C)C)C(N)=O` (Ac-GLFAVCKKVCSVIKGL-NH2; linker 6-10 via pXylylene), for which the figures for the IC50 in series [1], in series [2] and in series [3] were 13.4 µM, 15.7 µM and 15.6 µM, respectively.
Taken in the same sequence, the figures for `CC[C@H](C)[C@H](NC(=O)[C@@H](NC(=O)[C@H](C)NC(=O)[C@H](Cc1ccccc1)NC(=O)[C@H](CC(C)C)NC(=O)CNC(C)=O)C(C)C)C(=O)N[C@@H](CCCCN)C(=O)N[C@@H](CCCCN)C(=O)N[C@H]1CSCc2cccc(c2)CSC[C@@H](C(=O)N[C@@H](CCCCN)C(=O)NCC(=O)N[C@@H](CC(C)C)C(N)=O)NC(=O)[C@H](C(C)C)NC(=O)[C@H](CO)NC(=O)[C@H](C)NC1=O` (Ac-GLFAVIKKCASVCKGL-NH2; linker 9-13 via mXylylene) were 11 µM, 8.34 µM and 10.7 µM.
For `CC[C@H](C)[C@H](NC(=O)[C@@H](NC(=O)[C@H](C)NC(=O)[C@H](Cc1ccccc1)NC(=O)[C@H](CC(C)C)NC(=O)CNC(C)=O)C(C)C)C(=O)N[C@@H](CCCCN)C(=O)N[C@@H](CCCCN)C(=O)N[C@H]1CSCc2ccccc2CSC[C@@H](C(=O)N[C@@H](CCCCN)C(=O)NCC(=O)N[C@@H](CC(C)C)C(N)=O)NC(=O)[C@H](C(C)C)NC(=O)[C@H](CO)NC(=O)[C@H](C)NC1=O` (Ac-GLFAVIKKCASVCKGL-NH2; linker 9-13 via oXylylene) the same measures were 7.94 µM, 8.68 µM and 8.42 µM.
As to `CC[C@H](C)[C@H](NC(=O)[C@@H](NC(=O)[C@H](C)NC(=O)[C@H](Cc1ccccc1)NC(=O)[C@H](CC(C)C)NC(=O)CNC(C)=O)C(C)C)C(=O)N[C@@H](CCCCN)C(=O)N[C@@H](CCCCN)C(=O)N[C@H]1CSCc2ccc(cc2)CSC[C@@H](C(=O)N[C@@H](CCCCN)C(=O)NCC(=O)N[C@@H](CC(C)C)C(N)=O)NC(=O)[C@H](C(C)C)NC(=O)[C@H](CO)NC(=O)[C@H](C)NC1=O` (Ac-GLFAVIKKCASVCKGL-NH2; linker 9-13 via pXylylene), the figures for the IC50 in [1], in [2] and in series [3] were 114 µM, 32.1 µM and 25.9 µM, respectively.
